Values of other authors in patent US9775802B2, “Method for preparing suspensions of low-solubility materials” (Bausch & Lomb Incorporated, priority 2009, dated 2017).
Counter-ions that a name gives are not always drawn. Like-named read-outs stand apart in the source and are kept apart here.

Conditions: for solubility in water, estimated: 'estimated to be'

For `CC[C@H]1OC(=O)[C@H](C)[C@@H](O[C@H]2C[C@@](C)(OC)[C@@H](O)[C@H](C)O2)[C@H](C)[C@@H](O[C@@H]2O[C@H](C)C[C@H](N(C)C)[C@H]2O)[C@](C)(O)C[C@@H](C)CN(C)[C@H](C)[C@@H](O)[C@]1(C)O` [azithromycin dihydrate], the solubility in water (37° C.) is listed as “about 39 mg/mL”.
In the case of `CC[C@H]1OC(=O)[C@H](C)[C@@H](O[C@H]2C[C@@](C)(OC)[C@@H](O)[C@H](C)O2)[C@H](C)[C@@H](O[C@@H]2O[C@H](C)C[C@H](N(C)C)[C@H]2O)[C@](C)(O)C[C@@H](C)CN(C)[C@H](C)[C@@H](O)[C@]1(C)O` [azithromycin], the solubility in water (temperature not stated) is listed as “about 0.5 mg/mL”.
In the case of `C[C@@H]1C[C@H]2[C@@H]3CCC4=CC(=O)C=C[C@]4(C)[C@@]3(F)[C@@H](O)C[C@]2(C)[C@@]1(O)C(=O)COP(=O)(O)O` [dexamethasone phosphate disodium salt], the “solubility in water (in words)” value is given as “soluble in water”.
For `C[C@@H]1C[C@H]2[C@@H]3CCC4=CC(=O)C=C[C@]4(C)[C@@]3(F)[C@@H](O)C[C@]2(C)[C@@]1(O)C(=O)CO` [dexamethasone], the solubility in water (25° C.) is given as “about 0.1 mg/mL”.
In the case of `O=C(O)Cc1ccccc1Nc1c(Cl)cccc1Cl` [diclofenac sodium salt], the solubility in water (temperature not stated) is given as “about 50 mg/mL”.
For `O=C(O)Cc1ccccc1Nc1c(Cl)cccc1Cl` [diclofenac], the “solubility in water, estimated” value is given as “about 0.002 mg/mL”.
In the case of `COc1c(N2C[C@@H]3CCCN[C@@H]3C2)c(F)cc2c(=O)c(C(=O)O)cn(C3CC3)c12` [moxifloxacin], the “solubility in water, estimated” value is given as “about 0.17 mg/mL”.
